Reference: publication PMC3849221 (NeuroImage, 2013)
Values joined by “and” are separate entries in the source; they are usually repeats but may differ in a detail not shown here. Equal values may be shown once. “Also recorded” adds a separate entry of the source.

Key:
CB1 receptor = CB1 receptor (Homo sapiens, UniProt P21554); test: Human brain PET with 11C-SD5024, compartmental modeling; format: in vivo; conditions: for VT / K1 / k2 / vB (%): one-tissue compartment model, mean±SD; for VT: 120 min; for K1 / k2 / vB (%): seven subjects; for Intersubject Variability of VT (SD/mean): n=7, 120min
[1] = Measurement of 11C-SD5024 in human arterial plasma; format: in vivo
[2] = Pharmacological effects of injected 11C-SD5024 in healthy subjects; format: in vivo; conditions: human, injected mass dose 242±47 pmol/kg, n=7
Lipophilicity LogD7.4 = format: physicochemical; conditions: n-octanol / 0.15 M sodium phosphate buffer pH 7.4, room temperature, 6 measurements
CB1 receptors = CB1 receptors (Macaca mulatta, UniProt Q71SP5); test: Monkey brain PET with 11C-SD5024, baseline and rimonabant pre-blocked scans; conditions: for VT Baseline: one value per monkey; for VT Preblocked: rimonabant 3 mg/kg i.v.
[3] = monkey striatum, calculated from caudate and putamen (Table 2)

CB1 receptors, sequence (Q71SP5 whole entry): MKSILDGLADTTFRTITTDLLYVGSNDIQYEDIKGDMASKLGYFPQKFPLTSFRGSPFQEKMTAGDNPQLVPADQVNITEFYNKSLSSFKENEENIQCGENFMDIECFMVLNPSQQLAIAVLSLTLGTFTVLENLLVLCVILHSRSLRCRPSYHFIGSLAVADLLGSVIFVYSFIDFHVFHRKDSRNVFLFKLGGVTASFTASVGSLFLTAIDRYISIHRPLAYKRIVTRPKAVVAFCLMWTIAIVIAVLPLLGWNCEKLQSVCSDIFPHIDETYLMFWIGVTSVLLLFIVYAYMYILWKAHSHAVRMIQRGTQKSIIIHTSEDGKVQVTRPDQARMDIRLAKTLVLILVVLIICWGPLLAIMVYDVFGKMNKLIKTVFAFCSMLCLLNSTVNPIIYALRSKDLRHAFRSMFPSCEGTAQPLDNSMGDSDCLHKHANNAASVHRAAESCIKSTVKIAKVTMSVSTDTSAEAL
CB1 receptor, sequence (P21554 whole entry): as the sequence (Q71SP5 whole entry) above

N#[11C]c1ccc(S(=O)(=O)NC(=N)N2CC(c3ccccc3)C(c3ccc(Cl)cc3)=N2)cc1 (stereo not drawn) [^11C-SD5024, [cyano-^11C](−)-3-(4-chlorophenyl)-N-[(4-cyanophenyl)sulfonyl]-4-phenyl-4,5-dihydro-1H-pyrazole-1-carboxamidine]
decrease of brain radioactivity from peak time (40 min) to end of scan (120 min) (CB1 receptor): 20% | time of peak brain activity (CB1 receptor): ~ 40 min | VT (CB1 receptor; Caudate, n=7): 2.31±0.55 mL·cm^−3 | K1 (CB1 receptor; Caudate): 0.028±0.005 mL/cm^3/min | k2 (CB1 receptor; Caudate): 0.013 ± 0.003 min⁻¹ | vB (%) (CB1 receptor; Caudate): 3.7±0.67% | VT (CB1 receptor; Cerebellum, n=7): 1.93±0.38 mL·cm^−3 | K1 (CB1 receptor; Cerebellum): 0.030±0.006 mL/cm^3/min | k2 (CB1 receptor; Cerebellum): 0.016 ± 0.003 min⁻¹ | vB (%) (CB1 receptor; Cerebellum): 6.4±0.69% | VT (CB1 receptor; Cingulate, n=7): 2.79±0.58 mL·cm^−3 | K1 (CB1 receptor; Cingulate): 0.029±0.006 mL/cm^3/min | k2 (CB1 receptor; Cingulate): 0.011 ± 0.002 min⁻¹ | vB (%) (CB1 receptor; Cingulate): 5.0±0.58% | Intersubject Variability of VT (SD/mean) (CB1 receptor; Frontal): 21% | VT (CB1 receptor; Frontal, n=7): 2.57±0.54 mL·cm^−3 | K1 (CB1 receptor; Frontal): 0.032±0.006 mL/cm^3/min | k2 (CB1 receptor; Frontal): 0.013 ± 0.003 min⁻¹ | vB (%) (CB1 receptor; Frontal): 4.4±0.66% | VT (CB1 receptor; Lateral temporal, n=7): 2.66±0.57 mL·cm^−3 | K1 (CB1 receptor; Lateral temporal): 0.032±0.007 mL/cm^3/min | k2 (CB1 receptor; Lateral temporal): 0.012 ± 0.002 min⁻¹ | vB (%) (CB1 receptor; Lateral temporal): 5.2±0.64% | VT (CB1 receptor; Medial temporal, n=7): 2.48±0.65 mL·cm^−3 | K1 (CB1 receptor; Medial temporal): 0.023±0.005 mL/cm^3/min | k2 (CB1 receptor; Medial temporal): 0.010 ± 0.002 min⁻¹ | vB (%) (CB1 receptor; Medial temporal): 5.3±0.58% | VT (CB1 receptor; Occipital, n=7): 2.00±0.38 mL·cm^−3 | K1 (CB1 receptor; Occipital): 0.035±0.007 mL/cm^3/min | k2 (CB1 receptor; Occipital): 0.018 ± 0.003 min⁻¹ | vB (%) (CB1 receptor; Occipital): 5.9±0.49% | VT (CB1 receptor; Parietal, n=7): 2.44±0.50 mL·cm^−3 | K1 (CB1 receptor; Parietal): 0.034±0.006 mL/cm^3/min | k2 (CB1 receptor; Parietal): 0.014 ± 0.003 min⁻¹ | vB (%) (CB1 receptor; Parietal): 4.8±0.50% | Intersubject Variability of VT (SD/mean) (CB1 receptor; Putamen): 22% | VT (CB1 receptor; Putamen, n=7): 3.16±0.70 mL·cm^−3 | K1 (CB1 receptor; Putamen): 0.038±0.008 mL/cm^3/min | k2 (CB1 receptor; Putamen): 0.012 ± 0.003 min⁻¹ | vB (%) (CB1 receptor; Putamen): 4.0±0.79% | peak brain uptake of 11C-SD5024 higher than that of 11C-OMAR by (CB1 receptor; Table 5): about 40% | peak brain uptake of 11C-SD5024 lower than that of 11C-MePPEP by (CB1 receptor; Table 5): about 20% | peak brain uptake of 11C-SD5024 relative to 11C-OMAR (CB1 receptor; Table 5): ~ 1.4 times | VT of 11C-SD5024 relative to 11C-OMAR (CB1 receptor; Table 6): about twice higher; also recorded: about two-fold greater; also recorded: about twice greater | Intersubject Variability of VT (SD/mean) (CB1 receptor; Thalamus): 24% | VT (CB1 receptor; Thalamus, n=7): 1.71±0.41 mL·cm^−3 | K1 (CB1 receptor; Thalamus): 0.029±0.006 mL/cm^3/min | k2 (CB1 receptor; Thalamus): 0.017 ± 0.004 min⁻¹ | vB (%) (CB1 receptor; Thalamus): 4.6±0.49% | accumulation of radiometabolites in brain (CB1 receptor; from time stability of VT): do not significantly accumulate in brain | intersubject variability for VT (Table 6) (CB1 receptor; n=7): ~ 24% | intersubject variability of VT, average value (CB1 receptor; n=7): 22% | average SE of VT across brain regions (identifiability) (CB1 receptor; one-compartment model): 1.8% | scan duration adequate to measure VT / CB1 receptors (CB1 receptor; truncation of the 120-min scan): 80 min | free fraction in plasma (fP) [1]: too low to measure accurately | time of peak concentration in arterial plasma [1]: 75 s | peak concentration in arterial plasma ([1]; after i.v. injection): 24±8 SUV | fraction of parent as percentage of total plasma radioactivity ([1]; at 75 min): 51±13% | plasma concentrations of 11C-SD5024 relative to 11C-MePPEP ([1]; from 30 to 120 min): five-times | pharmacological effects (subjective reports, vital signs, laboratory tests) [2]: no pharmacological effects | LogD7.4 (Lipophilicity LogD7.4): 3.79±0.09 | specific binding as proportion of VT (CB1 receptors; monkey brain, baseline vs receptor blockade with rimonabant 3 mg/kg i.v.): ~ 80% | Specific binding (%) (CB1 receptors; monkey striatum, (VT baseline – VT preblock)/VT baseline): 82% | VT (striatum) Baseline (CB1 receptors; [3]): 2.36 mL·cm^−3 | VT (striatum) Preblocked (CB1 receptors; [3]): 0.44 mL·cm^−3 | Specific binding (%) (CB1 receptors; monkey, Caudate, (VT baseline – VT preblocked)/VT baseline): 82% and 79% | VT Baseline (CB1 receptors; monkey, Caudate): 1.62 mL · cm^−3 and 2.79 mL · cm^−3 | VT Preblocked (CB1 receptors; monkey, Caudate): 0.30 mL · cm^−3 and 0.60 mL · cm^−3 | Specific binding (%) (CB1 receptors; monkey, Cerebellum, (VT baseline – VT preblocked)/VT baseline): 79% and 78% | VT Baseline (CB1 receptors; monkey, Cerebellum): 1.27 mL · cm^−3 and 2.34 mL · cm^−3 | VT Preblocked (CB1 receptors; monkey, Cerebellum): 0.27 mL · cm^−3 and 0.51 mL · cm^−3 | Specific binding (%) (CB1 receptors; monkey, Cingulate, (VT baseline – VT preblocked)/VT baseline): 84% and 82% | VT Baseline (CB1 receptors; monkey, Cingulate): 1.74 mL · cm^−3 and 3.58 mL · cm^−3 | Specific binding (%) (CB1 receptors; monkey, Frontal Ctx, (VT baseline – VT preblocked)/VT baseline): 79% and 72% | VT Baseline (CB1 receptors; monkey, Frontal Ctx): 1.77 mL · cm^−3 and 3.13 mL · cm^−3 | Specific binding (%) (CB1 receptors; monkey, Lateral Temporal Ctx, (VT baseline – VT preblocked)/VT baseline): 81% and 77% | VT Baseline (CB1 receptors; monkey, Lateral Temporal Ctx): 1.32 mL · cm^−3 and 2.52 mL · cm^−3 | Specific binding (%) (CB1 receptors; monkey, Medial Temporal Ctx, (VT baseline – VT preblocked)/VT baseline): 71% | VT Baseline (CB1 receptors; monkey, Medial Temporal Ctx): 1.33 mL · cm^−3 and 2.54 mL · cm^−3 | VT Preblocked (CB1 receptors; monkey, Medial Temporal Ctx): 0.39 mL · cm^−3 and 0.75 mL · cm^−3 | Specific binding (%) (CB1 receptors; monkey, Occipital Ctx, (VT baseline – VT preblocked)/VT baseline): 78% and 71% | VT Baseline (CB1 receptors; monkey, Occipital Ctx): 1.07 mL · cm^−3 and 2.00 mL · cm^−3 | Specific binding (%) (CB1 receptors; monkey, Parietal Ctx, (VT baseline – VT preblocked)/VT baseline): 81% and 74% | VT Baseline (CB1 receptors; monkey, Parietal Ctx): 1.39 mL · cm^−3 and 2.70 mL · cm^−3 | Specific binding (%) (CB1 receptors; monkey, Putamen, (VT baseline – VT preblocked)/VT baseline): 83% and 81% | VT Baseline (CB1 receptors; monkey, Putamen): 1.84 mL · cm^−3 and 3.04 mL · cm^−3 | VT Preblocked (CB1 receptors; monkey, Putamen): 0.31 mL · cm^−3 and 0.56 mL · cm^−3 | Specific binding (%) (CB1 receptors; monkey, Thalamus, (VT baseline – VT preblocked)/VT baseline): 64% and 68% | VT Baseline (CB1 receptors; monkey, Thalamus): 0.83 mL · cm^−3 and 1.85 mL · cm^−3 | VT Preblocked (CB1 receptors; monkey, Thalamus): 0.30 mL · cm^−3 and 0.59 mL · cm^−3 | time of peak brain activity (CB1 receptors; monkey, baseline): ~ 60 min | brain activity (peak) (CB1 receptors; monkey, baseline, after i.v. injection): ~ 2 SUV | average SE of VT across brain regions (identifiability) (CB1 receptors; monkey, one-compartment model): 3.8%
